# Data reported in paper PMC12518634, “The noncanonical function of liver-type phosphofructokinase potentiates the efficacy of HDAC inhibitors in cancer” (Signal Transduction and Targeted Therapy, 2025).
# Where two headings read alike, the source gives them in different places.
# Key:
# 783C-6 = assay: High-throughput drug screen, CellTiter-Glo viability, 72 h; assay type: cell-based, human; parameters: AUC: scale not given here; settings: for EC50: Homo sapiens, 72 h
# Procedure, shortened: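 Cholangiocarcinoma cells were seeded at 3000/well in 384-well plates and dosed after 24 h. Drugs were tested at 10, 1, 0.1, 0.01 and 0.001 μM in duplicate for 72 h, with viability read by CellTiter-Glo luminescence.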
# 1405R3 = assay: as above; assay type: cell-based, human; parameters: AUC: scale not given here; settings: for EC50: Homo sapiens, 72 h
# Procedure, shortened: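 Responses are drug sensitivity scores (efficacy cutoff ≥10), fitted from CellTiter-Glo luminescence. Each drug was given at five concentrations (10 to 0.001 μM, tenfold steps) in duplicate for 72 h. Cells were plated at 3000/well 24 h before dosing.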
# 1405R3 cells = assay: Cell viability assay (CellTiter-Glo, 72 h), GI50; assay type: cell-based; settings: Homo sapiens, Fig. 1b
# Protocol: (§1) Cell viability was assessed using the CellTiter-Glo luminescent cell viability assay (Vazyme, DD1101) following the manufacturer’s instructions. Briefly, 5000 cells per well were seeded into a 96-well white bottom permeable plate. Different concentrations of drugs were added to each well. After 72 h of treatment, a mixture of CellTier reagent and serum-free culture medium was prepared at a 1:1 ratio, and 100 μL of the mixture was added to each well. After incubation at 37 °C for 15 min, the luminescence was measured using a microplate reader (Synergy H1, Biotek). All the experiments were conducted in triplicate. Cell viability (relative luminescence) was defined as the luminescence of the drug treatment relative to that of the vehicle control.
# 783C-6 cells = assay: Cell viability assay (CellTiter-Glo, 72 h), GI50; assay type: cell-based; settings: Homo sapiens
# Protocol: as §1
# HuCCT1 cells = assay: Cell viability assay (CellTiter-Glo, 72 h), GI50; assay type: cell-based; settings: Homo sapiens
# Protocol: as §1
# RBE cells = assay: Cell viability assay (CellTiter-Glo, 72 h), GI50; assay type: cell-based; settings: Homo sapiens, Fig. 1b
# Protocol: as §1
# SK-CHA-1 cells = assay: Cell viability assay (CellTiter-Glo, 72 h), GI50; assay type: cell-based; settings: Homo sapiens, Fig. 1b
# Protocol: as §1
# 1405R3 xenografts = assay: Cell-derived xenograft tumor growth; assay type: in vivo; settings: mice xenografted with PFKL low-expressed 1405R3 cells; n = 5 mice per group; Fig. 2b, c
# Protocol: (§2) For cell-derived xenograft (CDX) models, tumor cells were resuspended in saline and combined with an equal volume of Matrigel. A total of 1 × 10^6 cells in a 0.1 ml mixture were injected subcutaneously into the right flank of 6-week-old male nude mice. Once the tumor volume reached approximately 100 mm³, the mice were randomly grouped and treated with drugs or saline. The tumor volume was measured every 3 days and calculated via the following formula: tumor volume = (length × width^2) × 0.5. When the tumor volume reached 1500 mm³, the mice were euthanized via CO2 asphyxiation. The tumor tissues were harvested for further study.
# TFK1 xenografts = assay: Cell-derived xenograft tumor growth; assay type: in vivo; settings: mice xenografted with PFKL high-expressed TFK1 cells; n = 5 mice per group; Fig. 2b, c
# Protocol: as §2
# HuCCT1 xenografts = assay: Cell-derived xenograft tumor growth; assay type: in vivo; settings: mice xenografted with PFKL low-expressed HuCCT1 cells; n = 5 mice per group; Fig. 2b, c
# Protocol: as §2
# 783C-6 xenografts = assay: Cell-derived xenograft tumor growth; assay type: in vivo; settings: mice xenografted with PFKL high-expressed 783C-6 cells, n = 5 mice per group, Fig. 2b
# Protocol: as §2
# SK-CHA-1 xenografts = assay: Cell-derived xenograft tumor growth; assay type: in vivo; settings: mice xenografted with PFKL high-expressed SK-CHA-1 cells; n = 5 mice per group; Fig. 2b, c
# Protocol: as §2
# CC51 PDX tumors = assay: CCA patient-derived xenograft tumor growth; assay type: in vivo; settings: n = 5 mice per group, Fig. 2d, e
# Text: (§3) For patient-derived xenograft (PDX) models, fresh tumor samples were cut into small pieces of approximately 1 mm³ and subcutaneously transplanted into the flanks of NSG mice (P1 generation). After 2 to 3 months of tumor growth, the established PDX tumors were transplanted into subsequent generations (P2-Pn) under the skin of nude or NSG mice. When the tumors reached approximately 100 mm^3, the mice were randomly allocated to different groups and treated with HDAC inhibitors or saline. Tumor volume calculation, euthanasia of the mice, and specimen preparation followed the procedures of the CDX model.
# CC52 PDX tumors = assay: CCA patient-derived xenograft tumor growth; assay type: in vivo; settings: n = 5 mice per group, Fig. 2d, e
# Text: as §3
# CC16 PDX tumors = assay: CCA patient-derived xenograft tumor growth; assay type: in vivo; settings: n = 5 mice per group, Fig. 2d, e
# Text: as §3
# CC56 PDX tumors = assay: CCA patient-derived xenograft tumor growth; assay type: in vivo; settings: n = 5 mice per group, Fig. 2d, e
# Text: as §3
# CC11 PDX tumors = assay: CCA patient-derived xenograft tumor growth; assay type: in vivo; settings: n = 5 mice per group, Fig. 2d, e
# Text: as §3
# CC57 PDX tumors = assay: CCA patient-derived xenograft tumor growth; assay type: in vivo; settings: n = 5 mice per group, Fig. 2d, e
# Text: as §3
# [1] = 783C-6 after interference with LHCGR si-1, Fig. 1f
# [2] = 783C-6 after interference with LHCGR si-2, Fig. 1f
# [3] = 783C-6 after interference with NFIA si-1, Fig. 1f
# [4] = 783C-6 after interference with NFIA si-2, Fig. 1f
# [5] = 783C-6 after interference with PFKFB1 si-1, Fig. 1f
# [6] = 783C-6 after interference with PFKFB1 si-2, Fig. 1f
# [7] = 783C-6 after interference with PFKL si-1, Fig. 1f
# [8] = 783C-6 after interference with PFKL si-2, Fig. 1f
# [9] = 783C-6 expressing sgNC, Fig. 1g
# [10] = 783C-6 expressing sgPFKL-1, Fig. 1g
# [11] = 783C-6 expressing sgPFKL-2, Fig. 1g
# [12] = HuCCT-1, 72 h, HuCCT1, 72 h, CellTiter-Glo, Fig. 1b
# [13] = HuCCT-1, 72 h, HuCCT1 vector, 72 h, Fig. 1j
# [14] = HuCCT-1, 72 h, HuCCT1 with PFKL overexpression (ovPFKL), 72 h, Fig. 1j
Compound,GI50 (1405R3 cells) [nM],"GI50 (783C-6 cells; 783C-6, CellTiter-Glo, Fig. 1b) [nM]",GI50 (783C-6 cells; [1]) [nM],GI50 (783C-6 cells; [2]) [nM],GI50 (783C-6 cells; [3]) [nM],GI50 (783C-6 cells; [4]) [nM],GI50 (783C-6 cells; [5]) [nM],GI50 (783C-6 cells; [6]) [nM],GI50 (783C-6 cells; [7]) [nM],GI50 (783C-6 cells; [8]) [nM],GI50 (783C-6 cells; [9]) [nM],GI50 (783C-6 cells; [10]) [nM],GI50 (783C-6 cells; [11]) [nM],GI50 (HuCCT1 cells; [12]) [nM],GI50 (HuCCT1 cells; [13]) [nM],GI50 (HuCCT1 cells; [14]) [nM],GI50 (RBE cells) [nM],GI50 (SK-CHA-1 cells) [nM],tumor growth (1405R3 xenografts),tumor growth (TFK1 xenografts),other results
"Cc1[nH]c2ccccc2c1CCNCc1ccc(/C=C/C(=O)NO)cc1 [Panobinostat, panobinostat]",162,37.4,48,65.5,56.6,51.5,59,50.5,590,276,52.4,467,250,244,285,31.2,276,72.2,limited efficacy,markedly inhibited tumor growth,"DSS (783C-6; 783C-6 cells, DSS of DSRT analysis): 31.3; AUC (783C-6; 783C-6 cells, area under the dose-response curve): 262.4; MIN (783C-6; 783C-6 cells, minimum of dose-response curve): 0.3; EC50 (783C-6; read-out: EC50): 22.9 nM; AUC (1405R3; 1405R3 DSRT analysis, area under the dose-response curve): 218.4; DSS (1405R3; 1405R3 DSRT analysis, drug sensitivity score): 25.4; MIN (1405R3; 1405R3 DSRT analysis, lower asymptote of fitted dose-response curve): 0; EC50 (1405R3; 1405R3 DSRT analysis, CellTiter-Glo viability, fitted dose-response curve, Min.Conc.tested 1, Max.Conc.tested 10000, GI50, read-out: EC50): 64.9 nM; GI50 (783C-6 cells; 783C-6 siNC, Fig. 1f): 61.4 nM; tumor growth (HuCCT1 xenografts): limited efficacy; tumor growth (783C-6 xenografts): markedly inhibited tumor growth; tumor growth (SK-CHA-1 xenografts): markedly inhibited tumor growth; PDX tumor growth compared to the control group (CC51 PDX tumors): no significant disparities; PDX tumor growth compared to the control group (CC52 PDX tumors): notably attenuated the growth; PDX tumor growth compared to the control group (CC16 PDX tumors): notably attenuated the growth; PDX tumor growth compared to the control group (CC56 PDX tumors): no significant disparities; PDX tumor growth compared to the control group (CC11 PDX tumors): notably attenuated the growth; PDX tumor growth compared to the control group (CC57 PDX tumors): notably attenuated the growth"
"C/C=C1\NC(=O)[C@H]2CSSCC/C=C/[C@H](CC(=O)N[C@H](C(C)C)C(=O)N2)OC(=O)[C@H](C(C)C)NC1=O [Romidepsin, romidepsin]",64.4,2.55,3.8,3.4,2.5,2.8,3.1,2.9,38.8,11.4,2.9,34.8,15.3,83.4,74,3.96,115,5.5,limited efficacy,markedly inhibited tumor growth,"AUC (783C-6): 354.8; DSS (783C-6): 43.7; MIN (783C-6): 0; EC50 (783C-6): 2.7 nM; AUC (1405R3): 228.5; DSS (1405R3): 26.8; MIN (1405R3): 0; EC50 (1405R3): 51.3 nM; GI50 (783C-6 cells; 783C-6, romidepsin alone or combined with PFKL enzymatic activity modifier, Fig. 3b second table): 4.3 nM; GI50 (783C-6 cells; 783C-6, romidepsin alone or combined with glycolysis inhibitors, Fig. 3b first table): 3.49 nM; GI50 (HuCCT1 cells; HuCCT-1, HuCCT1, pretreated with peptide or NS for 12 h, then romidepsin 72 h, Fig. 5g): 93.5 nM; tumor growth (HuCCT1 xenografts): limited efficacy; tumor growth (783C-6 xenografts): markedly inhibited tumor growth; tumor growth (SK-CHA-1 xenografts): markedly inhibited tumor growth; PDX tumor growth compared to the control group (CC51 PDX tumors): no significant disparities; PDX tumor growth compared to the control group (CC52 PDX tumors): notably attenuated the growth; PDX tumor growth compared to the control group (CC16 PDX tumors): notably attenuated the growth; PDX tumor growth compared to the control group (CC56 PDX tumors): no significant disparities; PDX tumor growth compared to the control group (CC11 PDX tumors): notably attenuated the growth; PDX tumor growth compared to the control group (CC57 PDX tumors): notably attenuated the growth"
